Data taken from the supplement of paper PMC12420376.

Legend:
KURAMOCHI = assay: drug sensitivity score (DSS2) on cancer cell count; higher = more sensitive; extreme values may be limits of the assay; conditions: 72 h
Summary of the method: (§1)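 Cancer cell counts came from 10× images (4 fields) of fixed cells immunostained for CK8/18 with Hoechst. The ovarian cancer cells had been grown alone or in 1:1 direct co-culture with lung or skin fibroblasts on 384-well plates pre-spotted acoustically with 528 approved and investigational compounds at 5 concentrations, then treated for 72 h. Breeze was used to derive a drug sensitivity score from logistic fits of the data.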

OVCAR8 = assay: as above; conditions: 72 h
Summary of the method: as §1

[1] = co-cultured fibroblast: BJHTERT
[2] = co-cultured fibroblast: none (monoculture)

Row | Compound | drug sensitivity score (KURAMOCHI; [1]) | drug sensitivity score (KURAMOCHI; co-cultured fibroblast: WI38) | drug sensitivity score (KURAMOCHI; [2]) | drug sensitivity score (OVCAR8; [1]) | drug sensitivity score (OVCAR8; co-cultured fibroblast: WI38) | drug sensitivity score (OVCAR8; [2])
1 | CCS(=O)(=O)N1CCN(c2ccc(Nc3ncc(C(N)=O)c(NC4CC4)n3)cc2)CC1 [Cerdulatinib] | 0 DSS | 4.3 DSS | 1.1 DSS | 0 DSS | 4.3 DSS | 1.1 DSS
2 | NC(=O)NO [Hydroxyurea] | 5.9 DSS | 7.3 DSS | 6.3 DSS | 1.8 DSS | 7.3 DSS | 7.7 DSS
3 | N#CC1(c2ccc(NC(=O)c3cccnc3NCc3ccncc3)cc2)CCCC1 [Apatinib] | 0 DSS | 0 DSS | 0 DSS | 0 DSS | 4.9 DSS | 2.2 DSS
4 | Cc1nc(C(=O)NCC(=O)O)c(O)c2ccc(Oc3ccccc3)cc12 [Roxadustat] | 3 DSS | 0 DSS | 0 DSS | 0 DSS | 0 DSS | 0 DSS
5 | CCC(C)(C)C(=O)O[C@H]1C[C@@H](C)C=C2C=C[C@H](C)[C@H](CC[C@@H]3C[C@@H](O)CC(=O)O3)[C@H]21 [Simvastatin] | 0.4 DSS | 0 DSS | 8.6 DSS | 1.8 DSS | 14.6 DSS | 3.6 DSS
6 | CCCOc1ccn2c(C(C)=O)cc(-c3ccccc3S(C)(=O)=O)c2c1 [GSK2801] | 0 DSS | 0 DSS | 0.9 DSS | 0 DSS | 0 DSS | 0 DSS
7 | O=C(O)c1ccc2c(c1)nc(Nc1cccc(Cl)c1)c1ccncc12 [Silmitasertib] | 4.1 DSS | 3.4 DSS | 0.8 DSS | 2 DSS | 0 DSS | 3 DSS
8 | Cn1cc(-c2ccc(F)c(C(F)(F)F)c2)nc1C1CCN(c2ncnc3[nH]ncc23)CC1 | 1 DSS | 0 DSS | 0 DSS | 0 DSS | 0 DSS | 0.6 DSS
9 | CC[C@]1(O)C[C@H]2CN(CCc3c([nH]c4ccccc34)[C@@](C(=O)OC)(c3cc4c(cc3OC)N(C=O)[C@H]3[C@@](O)(C(=O)OC)[C@H](OC(C)=O)[C@]5(CC)C=CCN6CC[C@]43[C@@H]65)C2)C1 [Vincristine] | 7.5 DSS | 5 DSS | 23.4 DSS | 11.5 DSS | 9.3 DSS | 11.9 DSS
10 | O=C(CCCCCCNC(=O)c1cnc(N(c2ccccc2)c2ccccc2)nc1)NO [Rocilinostat] | 6.7 DSS | 6.9 DSS | 7.1 DSS | 10.4 DSS | 5.2 DSS | 18.6 DSS
11 | CNc1nc(Nc2cn(C(C)(C)C#N)nc2C)ncc1C(F)(F)F [GNE-0877] | 0 DSS | 0 DSS | 0 DSS | 0 DSS | 1.8 DSS | 0 DSS
12 | COc1cc(Nc2c(C#N)cnc3cc(OCCCN4CCN(C)CC4)c(OC)cc23)c(Cl)cc1Cl [Bosutinib] | 12.9 DSS | 11 DSS | 12.6 DSS | 8.6 DSS | 9.1 DSS | 8.9 DSS
13 | O=C(O)c1ccc(-c2c[nH]c3ncc(-c4ccccc4)cc23)cc1C1CCCC1 | 6.8 DSS | 7.3 DSS | 7.1 DSS | 2 DSS | 4.8 DSS | 8.1 DSS
14 | CN1CCN(C2CCN(C(=O)Nc3cc(Oc4ccc(NC(=O)C5(C(=O)Nc6ccc(F)cc6)CC5)c(F)c4)ccn3)CC2)CC1 [Golvatinib] | 0 DSS | 0 DSS | 0 DSS | 0 DSS | 0 DSS | 0 DSS
15 | Cc1cccc(CC(=O)N2CCc3c2ccc(-c2cn(C)c4ncnc(N)c24)c3F)n1 | 0.3 DSS | 0 DSS | 0 DSS | 1.4 DSS | 0 DSS | 0 DSS
16 | Cc1cc(Nc2cc(N3CCN(C)CC3)nc(Sc3ccc(NC(=O)C4CC4)cc3)n2)n[nH]1 [Tozasertib] | 22 DSS | 19.4 DSS | 23.7 DSS | 20.1 DSS | 19.5 DSS | 20.9 DSS
17 | C=CC(=O)Nc1cc2c(Nc3ccc(F)c(Cl)c3)ncnc2cc1OCCCN1CCOCC1 [Canertinib] | 9.4 DSS | 9.2 DSS | 24.2 DSS | 9.6 DSS | 8.3 DSS | 9.4 DSS
18 | COc1cc(N2CCN(C)CC2)ccc1Nc1nccc(-c2cn(C)c3cnccc23)n1 [AZ191] | 5.9 DSS | 2.3 DSS | 6.9 DSS | 3.3 DSS | 2 DSS | 1.3 DSS
19 | C[C@]1(c2nc3c(C(N)=O)cccc3[nH]2)CCCN1 [Veliparib] | 0.4 DSS | 0 DSS | 0 DSS | 5 DSS | 3.1 DSS | 0.5 DSS
20 | CCOc1ccccc1-n1c(C(C)N2CCN(C(=O)COc3ccc(Cl)cc3)CC2)nc2ccccc2c1=O (stereo unspecified) [Erastin] | 3.6 DSS | 3.9 DSS | 2.6 DSS | 17.9 DSS | 18.6 DSS | 7.4 DSS
21 | O=C(O)C(=O)O.[NH-][C@@H]1CCCC[C@H]1[NH-].[Pt+2] [Oxaliplatin] | 9.3 DSS | 16 DSS | 18.1 DSS | 13.9 DSS | 19.6 DSS | 18.2 DSS
22 | CN1CCN(c2ccc3nc(-c4c(N)c5c(F)cccc5[nH]c4=O)[nH]c3c2)CC1 [Dovitinib] | 0 DSS | 0 DSS | 0 DSS | 0.5 DSS | 0 DSS | 0.3 DSS
23 | O=C(Nc1ccncc1)C(=O)c1cn(Cc2ccc(Cl)cc2)c2ccccc12 [Indibulin] | 13.1 DSS | 17.2 DSS | 19.5 DSS | 11 DSS | 26.6 DSS | 21.2 DSS

Row | Compound | drug sensitivity score (KURAMOCHI; [1]) | drug sensitivity score (KURAMOCHI; co-cultured fibroblast: WI38) | drug sensitivity score (KURAMOCHI; [2]) | drug sensitivity score (OVCAR8; [1]) | drug sensitivity score (OVCAR8; co-cultured fibroblast: WI38) | drug sensitivity score (OVCAR8; [2])
24 | CC(C)n1nc(-c2ccc3oc(N)nc3c2)c2c(N)ncnc21 [Sapanisertib] | 13.5 DSS | 12.4 DSS | 15.1 DSS | 11 DSS | 7.9 DSS | 11.8 DSS
25 | CCC1=C[C@@H]2CN(C1)Cc1c([nH]c3ccccc13)[C@@](C(=O)OC)(c1cc3c(cc1OC)N(C)[C@H]1[C@@](O)(C(=O)OC)[C@H](OC(C)=O)[C@]4(CC)C=CCN5CC[C@]31[C@@H]54)C2 [Vinorelbine] | 29.3 DSS | 25.7 DSS | 25.6 DSS | 38.8 DSS | 33 DSS | 29.3 DSS
26 | c1cn2cc(-c3ccc4cn[nH]c4c3)nc(Nc3ccc(N4CCOCC4)cc3)c2n1 [Entospletinib] | 0 DSS | 1.4 DSS | 0 DSS | 1.2 DSS | 0 DSS | 0 DSS
27 | CNC(=O)[C@@H](NC(=O)[C@H](CC(C)C)[C@H](O)C(=O)NO)C(C)(C)C [Marimastat] | 0 DSS | 0 DSS | 0 DSS | 0.2 DSS | 1.4 DSS | 0.7 DSS
28 | O=C1CN2Cc3c(ccc(Cl)c3Cl)N=C2N1 [Anagrelide] | 0 DSS | 0 DSS | 0 DSS | 0 DSS | 11.9 DSS | 0 DSS
29 | CNC(=O)c1cccc2cc(Oc3ccnc4cc(OCC5(N)CC5)c(OC)cc34)ccc12 [Lucitanib] | 4.3 DSS | 4.3 DSS | 2.4 DSS | 3.3 DSS | 6 DSS | 3.4 DSS
30 | C/C(=C\c1csc(C)n1)[C@@H]1C[C@@H]2O[C@]2(C)CCC[C@H](C)[C@H](O)[C@@H](C)C(=O)C(C)(C)[C@@H](O)CC(=O)N1 [Ixabepilone] | 4.9 DSS | 4.6 DSS | 0.8 DSS | 5.8 DSS | 5.6 DSS | 3.6 DSS
31 | CO[C@H]1CC[C@H](N2C(=O)CNc3ncc(-c4ccc(C(C)(C)O)nc4)nc32)CC1 [CC-223] | 6.8 DSS | 5.7 DSS | 4.7 DSS | 5 DSS | 1.6 DSS | 7.6 DSS
32 | CC(C)(C)c1nc(-c2cccc(NS(=O)(=O)c3c(F)cccc3F)c2F)c(-c2ccnc(N)n2)s1 [Dabrafenib] | 0 DSS | 0 DSS | 0 DSS | 0.2 DSS | 15.2 DSS | 0.5 DSS
33 | CNC(=O)c1ccc(C)c(-n2c(C)cc(OCc3ccc(F)cc3F)c(Br)c2=O)c1 | 0.6 DSS | 0 DSS | 14.9 DSS | 0.9 DSS | 0 DSS | 0 DSS
34 | O=C(NCc1ccncc1)C12CC3CC(C1)CC(c1ccc(Cl)cc1)(C3)C2 | 5.8 DSS | 5.6 DSS | 3.7 DSS | 3.9 DSS | 3.6 DSS | 5 DSS
35 | Cc1cc(F)c(C(=O)Nc2cccc(-c3nncn3C(C)C)n2)cc1-n1cnc(C2CC2)c1 [Selonsertib] | 0 DSS | 0 DSS | 0 DSS | 0 DSS | 0 DSS | 0 DSS
36 | NC1(c2ccc(-c3nc4ccn5c(=O)[nH]nc5c4cc3-c3ccccc3)cc2)CCC1 [MK-2206] | 5.8 DSS | 1.4 DSS | 16.1 DSS | 0.2 DSS | 0 DSS | 0.3 DSS
37 | CC[C@@H]1C(=O)N(C)c2cnc(Nc3ccc(C(=O)N[C@H]4CC[C@H](N5CCN(CC6CC6)CC5)CC4)cc3OC)nc2N1C(C)C [Volasertib] | 16.4 DSS | 17.9 DSS | 21.4 DSS | 26.5 DSS | 21.5 DSS | 24.7 DSS
38 | CNC(=O)c1ccccc1Nc1nc(Nc2ccc3c(c2OC)CCC[C@H](N2CCN(CCO)CC2)C3)ncc1Cl | 6.7 DSS | 2.2 DSS | 9.5 DSS | 7.3 DSS | 2.2 DSS | 11.1 DSS
39 | C=CC(=O)N1CC/C(=C\c2ccc(F)c([N+](=O)[O-])c2)C(=O)/C(=C/c2ccc(F)c([N+](=O)[O-])c2)C1 [VLX1570] | 27.4 DSS | 24.7 DSS | 29 DSS | 24.8 DSS | 31.1 DSS | 31.7 DSS
40 | Nc1nccc(-c2c(-c3ccc(F)cc3)ncn2C2CCCCC2)n1 | 5.1 DSS | 4 DSS | 4.1 DSS | 1.4 DSS | 0 DSS | 1.2 DSS
41 | C[C@H]1C[C@@H](n2c(Nc3ccc(OC(F)(F)F)cc3)nc3cc(CCC(=O)O)ccc32)CC(C)(C)C1 | 0 DSS | 0 DSS | 0 DSS | 0 DSS | 0 DSS | 0 DSS
42 | Cc1cc2c(C(=O)NC[C@H](C)c3ccccc3)c(O)c(O)cc2c(O)c1-c1c(C)cc2c(C(=O)NC[C@H](C)c3ccccc3)c(O)c(O)cc2c1O [Sabutoclax] | 3 DSS | 4.3 DSS | 23.7 DSS | 16.2 DSS | 14.2 DSS | 26.7 DSS
43 | C[C@@H](Oc1cc(-c2cnn(C3CCNCC3)c2)cnc1N)c1c(Cl)ccc(F)c1Cl [Crizotinib] | 0 DSS | 0 DSS | 0 DSS | 0.7 DSS | 0 DSS | 0 DSS
44 | COc1cc([C@@H]2c3cc4c(cc3[C@@H](O[C@@H]3O[C@@H]5CO[C@@H](c6cccs6)O[C@H]5[C@H](O)[C@H]3O)[C@H]3COC(=O)[C@H]23)OCO4)cc(OC)c1O [Teniposide] | 0 DSS | 0 DSS | 0 DSS | 0 DSS | 0 DSS | 0.4 DSS
45 | C[C@@H]1COC(Nc2ccc3ncnc(Nc4ccc(OCc5nccs5)c(Cl)c4)c3c2)=N1 [Varlitinib] | 1.5 DSS | 2.1 DSS | 0 DSS | 0 DSS | 2 DSS | 1.4 DSS
46 | O=C(O)CCCCC(CCSCc1ccccc1)SCc1ccccc1 (stereo unspecified) [CPI-613] | 0 DSS | 0 DSS | 0 DSS | 0 DSS | 1.3 DSS | 0 DSS
